Data on 84 molecules can be found in ChEMBL document CHEMBL3988442, “University of Dundee, Small-Polar-MMV Screening Library” (2021).

Assay [1] in a line: microbe, parasite or virus in culture. Conditions: Mycobacterium tuberculosis, 72 h, read-out: pIC50 (converted).
Assay [2] in a line: microbe, parasite or virus in culture. Conditions: Mycobacterium tuberculosis, 96 h, read-out: pIC50 (converted).

As for `N#CCCN1CCCN(c2ccc(C#N)cc2)CC1`, the values for the IC50 in assay [1] and in assay [2] were 232 µM and 262 µM, respectively.
For `Cc1ccc(NCc2ncc[nH]2)c(F)c1`, in that order: 216 µM and over 501 µM.
For `CN(CC(C)(CO)CO)c1ncc(Cl)cc1Cl`, in that order: 122 µM and 301 µM.
For the molecule `Cc1ccc(C(C)(C)CN(C)C(=O)CCN)cc1`, the IC50 in assay [1] was 64.1 µM; in assay [2], over 501 µM.
For `O=C(Nc1cccnc1N1CCC(CO)CC1)C1CC1`, in that order: over 501 µM and 53.6 µM.
On to `N#Cc1cccc(OCCn2cnc(C#N)n2)c1`, for which the IC50 in assay [1] is over 501 µM; in assay [2] it was 304 µM.
In the same order, the values of `COc1ccc(OC)c(CNc2nc(C)nn2C)c1` are 199 µM and over 501 µM.
For `OC(Cn1nnc(-c2ccsc2)n1)CC(F)(F)F` (stereo not drawn), in that order: 56.5 µM and 39.2 µM.
In the case of `O=C(NCc1cccs1)c1cnsn1`, the results for the IC50 in assay [1] and in assay [2] were 3.61 µM and 17.4 µM, respectively.
Turning to `O=C(NCc1ccc2c(c1)OCCCO2)c1cscn1`, the IC50 was 107 µM in assay [1] and 111 µM in assay [2].
In the same order, the values of `CNS(=O)(=O)c1ccc(C(=O)NCc2ccccc2)o1` are 151 µM and over 501 µM.
In the same order, the values of `COc1ccnc(N2CCCNCC2)n1` are 229 µM and over 501 µM.
In the case of `CC1(C)CN(C(=O)c2cc(Br)c[nH]2)CCO1`, the figures for the IC50 in assay [1] and in assay [2] were 136 µM and 290 µM, respectively.
In the same order, the values of `CSc1cncc(NCCC(=O)N2CCCC2)n1` are 336 µM and over 501 µM.
As for `CC(C)(C)c1cnc(CN2CCOCC2C(N)=O)o1` (stereo not drawn), the IC50 in assay [1] was 158 µM; in assay [2] it was over 501 µM.
As for `COc1ccc(CN(C)C(=O)C2CC2)cc1F`, the IC50 was 211 µM in assay [1] and 255 µM in assay [2].
For `CSCC(C)(O)CNc1nnnn1-c1ccccc1` (stereo not drawn), in that order: 306 µM and 290 µM.
In the same order, the values of `CCCC(C)CS(=O)(=O)NCc1ccncc1` (stereo not drawn) are 115 µM and 123 µM.
For `Nc1nnc(SCc2coc(-c3ccccc3)n2)[nH]1`, in that order: over 501 µM and over 501 µM.
Consider `CN(Cc1ccc(Br)o1)C(=O)c1nccnc1N`, for which the IC50 was 210 µM in assay [1] and 414 µM in assay [2].
Regarding `CN(C)S(=O)(=O)NC1CCCOc2c(Cl)cccc21` (stereo not drawn), the IC50 in assay [1] and in assay [2] was over 501 µM throughout.
As for `CC(=O)N1CCN(Cc2cc(Br)c3c(c2)OCO3)CC1`, the values for the IC50 in assay [1] and in assay [2] were over 501 µM and 394 µM, respectively.
On to `O=S1(=O)CCCN1CCNc1ncc(Cl)cc1Cl`, for which the IC50 is 111 µM in assay [1] and over 501 µM in assay [2].
For `CC(=O)N1CCC[C@H]1C(=O)NCCc1csc(C)n1`, in that order: over 501 µM and over 501 µM.
As for `CNC(=O)NC(=O)CCN1CCc2ccccc2C1`, the IC50 is 196 µM in assay [1] and 201 µM in assay [2].
For `Cc1c(Br)cccc1S(=O)(=O)NCCN`, in that order: 212 µM and over 501 µM.
For `CN(Cc1c(F)cccc1Cl)C(=O)CNC(=O)C1CC1`, in that order: 237 µM and 71 µM.
As for `CCC1(NC(=O)c2coc(S(=O)(=O)N(C)C)c2)CCC1`, the IC50 in assay [1] and in assay [2] was over 501 µM in each case.
Regarding `O=C(NCCc1cccnc1)c1cc(C2CC2)on1`, the IC50 in assay [1] and in assay [2] was over 501 µM in each case.
For the molecule `CC(C)(C)OC(=O)c1ncccc1N`, the IC50 in assay [1] was over 501 µM; in assay [2] it was 265 µM.
In the same order, the values of `CC(C)CC(C)Oc1cc(CNS(N)(=O)=O)ccn1` (stereo not drawn) are 116 µM and 372 µM.
In the same order, the values of `OC1(CNc2nc(-c3ccccc3)ns2)CCSC1` (stereo not drawn) are 279 µM and 256 µM.
Regarding `NCCc1cnn(-c2ccccc2)c1`, the IC50 in assay [1] is 230 µM; in assay [2], 250 µM.
In the same order, the values of `CNCCCNC(=O)CCc1ccc(F)cc1` are over 501 µM and over 501 µM.
For `O=C(NCCCOC(F)F)NCc1ccc(Br)o1`, in that order: 135 µM and 125 µM.
For `O=c1[nH]cnc2cccc(O)c12`, in that order: over 501 µM and over 501 µM.
`COC1CCN(C(=O)Cc2ccc(N(C)C)cc2)C1` (stereo not drawn): the IC50 was 183 µM in assay [1] and 122 µM in assay [2].
In the same order, the values of `Cc1cc(C(=O)N2CCN(Cc3ccsc3)CC2)[nH]n1` are 90.5 µM and 156 µM.
As for `COCCN(Cc1cccs1)C(=O)CC1CCNC1` (stereo not drawn), the IC50 in assay [1] is 159 µM; in assay [2], 329 µM.
In the same order, the values of `COCCNCC(=O)Nc1cccc(CSC)c1` are 374 µM and over 501 µM.
In the same order, the values of `CSCCC(CO)NC(=O)c1occc1C(C)C` (stereo not drawn) are 258 µM and over 501 µM.
For `CCS(=O)(=O)NCC(N)c1ccc(C(C)C)cc1` (stereo not drawn), the IC50 in assay [1] was 85.8 µM; in assay [2], 211 µM.
For `COCCCN(C)S(=O)(=O)c1ccc(Br)cn1`, in that order: 278 µM and 206 µM.
As to `Cc1cc(C(=O)NCCCN(C)CC(F)(F)F)no1`, the IC50 in assay [1] and in assay [2] was over 501 µM each time.
Take `NCC1CCN(CCc2ccccc2)C1` (stereo not drawn): the IC50 was 209 µM in assay [1] and 213 µM in assay [2].
Take `Fc1cc(Cl)cnc1N1CCCNCC1`: the IC50 was 34.3 µM in assay [1] and over 501 µM in assay [2].
For `NCc1noc(-c2ccc(Cl)cc2F)n1`, in that order: 277 µM and 242 µM.
For `CCN(CCC(N)=O)Cc1cccc2c1OCO2`, in that order: 258 µM and 272 µM.
As for `N#CC1(C(=O)N2CCc3sccc3C2)CCCC1`, the figures for the IC50 in assay [1] and in assay [2] were 475 µM and 167 µM, respectively.
In the same order, the values of `CCS(=O)(=O)NCCNS(=O)(=O)c1ccc(C)cc1Cl` are over 501 µM and over 501 µM.
In the same order, the values of `Cc1cc(NC(C)CN2CCOCC2)ncc1Br` (stereo not drawn) are 420 µM and over 501 µM.
In the same order, the values of `CC(CCc1ccc(O)cc1)NC1(CO)CC1` (stereo not drawn) are 199 µM and over 501 µM.
For the molecule `CN(Cc1ccco1)C(=O)CN1CCc2sccc2C1`, the values for the IC50 in assay [1] and in assay [2] were 60 µM and 89.2 µM, respectively.
For `CN(C)C(=O)CCCn1nnc(-c2ccsc2)n1`, in that order: 89.8 µM and 155 µM.
For `CNC(=O)NC(=O)C(C)Nc1cccc(C)c1` (stereo not drawn), in that order: 201 µM and 190 µM.
As for `CN1Cc2cc(-c3csc(N)n3)ccc2NC1=O`, the IC50 in assay [1] and in assay [2] was over 501 µM throughout.
Regarding `CCc1cccc(S(=O)(=O)N2CC[C@H](N)C2)c1`, the IC50 was 183 µM in assay [1] and over 501 µM in assay [2].
In the same order, the values of `COC(=O)N1CC(NC(=O)c2cc(C(C)=O)c[nH]2)C1` are over 501 µM and over 501 µM.
For `COc1cccc2c1CCNCC2`, in that order: 271 µM and 348 µM.
In the case of `COCCNC(=O)Nc1ccc2c(c1)OC(C)(C)O2`, the figures for the IC50 in assay [1] and in assay [2] were 65.7 µM and 170 µM, respectively.
For `c1ccc(OCCCOC2CNC2)cc1`, the IC50 in assay [1] is 177 µM; in assay [2], over 501 µM.
For `COC(=O)[C@H](C)NC(=O)c1noc2c1CCCCC2`, in that order: 238 µM and over 501 µM.
For `CCCNc1nnc(SC2CCOC2)s1` (stereo not drawn), in that order: 259 µM and 70.9 µM.
For `CC(=O)NCC1CN(c2ncccc2F)CCO1` (stereo not drawn), the IC50 was 243 µM in assay [1] and 210 µM in assay [2].
In the same order, the values of `Cc1nn(C)c2nc(NCCSc3ncn[nH]3)sc12` are over 501 µM and over 501 µM.
In the same order, the values of `CN(CC(=O)Nc1ccsc1)C(=O)c1ccco1` are over 501 µM and over 501 µM.
With `CCOC(=O)C(C)Nc1ccc2oc(=O)[nH]c2c1` (stereo not drawn), the IC50 in assay [1] is 311 µM; in assay [2], 292 µM.
For the molecule `Nc1ccc(CNc2nc(C3CC3)ns2)cn1`, the IC50 in assay [1] and in assay [2] was over 501 µM throughout.
On to `CCC(C)Oc1cc(C(=O)NCC2(O)CCC2)ccn1` (stereo not drawn), for which the figures for the IC50 in assay [1] and in assay [2] were 62.8 µM and 29.6 µM, respectively.
In the same order, the values of `CC(C)(C)c1ccc2c(c1)C(N)C(=O)N2` (stereo not drawn) are 377 µM and 260 µM.
On to `CCOc1cc(NCc2ncc(C)o2)ncn1`, for which the IC50 in assay [1] was 153 µM; in assay [2] it was over 501 µM.
For `CCN1CCN(C(C)CNC(=O)Cn2cnnn2)CC1` (stereo not drawn), in that order: over 501 µM and over 501 µM.
Regarding `NC(=O)CN(Cc1ccc(Br)cc1)C(=O)c1ccco1`, the values for the IC50 in assay [1] and in assay [2] were 427 µM and over 501 µM, respectively.
For the molecule `O=C(NCCO)c1ccc(OCc2cccs2)cc1`, the IC50 in assay [1] is 378 µM; in assay [2], over 501 µM.
`CC(C)c1cccc(S(=O)(=O)N(C)Cc2nnc[nH]2)c1`: the IC50 in assay [1] and in assay [2] was over 501 µM each time.
As for `O=C1NC(=O)c2c(O)cccc21`, the IC50 in assay [1] was 196 µM; in assay [2], 254 µM.
In the case of `CC(Cn1c(=O)[nH]c2ccccc2c1=O)N1CCCC1` (stereo not drawn), the results for the IC50 in assay [1] and in assay [2] were 63.1 µM and 111 µM, respectively.
For `CC(NC(=O)CNc1cc(F)cc(Br)c1)C(=O)N(C)C` (stereo not drawn), in that order: 289 µM and over 501 µM.
For `CC1CCCN1C1CCN(CCNS(C)(=O)=O)CC1` (stereo not drawn), in that order: over 501 µM and over 501 µM.
In the case of `CSc1c(F)cc(NC(=O)NCCO)cc1F`, the IC50 in assay [1] and in assay [2] was over 501 µM in each case.
Consider `Cc1ccc(C(=O)NCC(=O)NC(C)(C)C)c(O)c1`, for which the IC50 in assay [1] and in assay [2] was over 501 µM throughout.
For `COCCN(C)C(=O)Nc1cccc(Cl)c1`, the results for the IC50 in assay [1] and in assay [2] were over 501 µM and 282 µM, respectively.
On to `C[C@@]1(O)CCN(C(=O)CN)C[C@@H]1Cc1ccccc1`, for which the figures for the IC50 in assay [1] and in assay [2] were 219 µM and 174 µM, respectively.
On to `N#CCC1(O)CN(S(=O)(=O)C=Cc2ccc(Cl)cc2)C1`, for which the IC50 in assay [1] was 287 µM; in assay [2], over 501 µM.
